According to patent EP1092007B1, “A NEW IMPROVED ENZYME CONTAINING GRANULE” (Novozymes A/S, priority 1998, dated 2000):

experiment: Measurement of constant humidity values for coating compounds; assay type: physicochemical; conditions: 20°C; % RH of air over saturated aqueous solution
Protocol: The term "constant humidity" (in the context of the invention sometimes abbreviated as CH) of a compound or substance is to be understood as the % RH of atmospheric air in equilibrium with a saturated aqueous solution of said compound in contact with the solid phase of said compound, all confined within a closed space at a given temperature. […] Accordingly CH20 °C =50% for a compound means that air with a 50% humidity will be in equilibrium with a saturated aqueous solution of the compound at 20°C. Accordingly the term constant humidity is a measure of the hygroscopic properties of a compound.
The constant humidity of water soluble compound coating materials were measured by preparing a saturated aqueous solution with excess of solid phase of the compound in an open beaker.

First: N.O=P(O)(O)O [(NH4)H2PO4]
Second: O=P([O-])(O)O.[K+] [KH2PO4]
The “CH20°C (constant humidity)” value of the first is higher: 93.1% for the first, 92% for the second.

Going from `O=S(=O)([O-])O.[K+]` [KHSO4] to `O=S(=O)([O-])[O-].[Zn+2]` [ZnSO4], the “CH20°C (constant humidity)” value rises from 86% to 90%.

Compared with `O=P([O-])([O-])O.[Na+].[Na+]` [Na2HPO4], `O=S(=O)([O-])[O-].[Na+].[Na+]` [Na2SO4, sodium sulfate] is lower in “CH20°C (constant humidity)” value: 95% for the first, 93% for the second.

same assay, conditions: 25°C

First: N.N.O=S(=O)(O)O [Ammonium sulfate]
Second: O=S(=O)([O-])[O-].[Na+].[Na+] [Na2SO4, sodium sulfate]
The “Constant humidities at 25°C” value of the first is lower: 79 for the first, 93 for the second.

First: O=C([O-])CC(O)(CC(=O)[O-])C(=O)[O-].[Na+].[Na+].[Na+] [sodium citrate]
Second: O=C[O-].[Na+] [sodium formiate]
The “Constant humidities at 25°C” value of the first is higher: 86 for the first, 56 for the second.

same assay, conditions: 25°C; % RH of air over saturated aqueous solution

First: O=S(=O)([O-])[O-].[K+].[K+] [Example K2SO4, K2SO4]
Second: O=P([O-])([O-])[O-].[Na+].[Na+].[Na+] [Na3PO4]
The “CH25°C (constant humidity)” value of the first is higher: 99% for the first, 92% for the second.

For `O=C([O-])CC(O)(CC(=O)[O-])C(=O)[O-].[Na+].[Na+].[Na+]` [sodium citrate], the “CH25°C (constant humidity)” value was 86%.
